# Measured values: patent US4321372A, “Antiulcer thiazol-2-ylcarbamoyl-carboxylic acids, esters and amides” (Pfizer Inc., priority 1980, dated 1982)
# Structures can show the parent of a compound that is named as a salt.
# Tests used:
# [1] = system: ethanol-induced rat ulcer; test: Ethanol-induced rat ulcer assay (oral antiulcer activity); type: in vivo; conditions: for inhibition at 5 mg/kg: Rattus norvegicus, po; for inhibition at 5 mg/kg / % Inhibition (oral activity in the ethanol-induced rat ulcer assay): 5 mg./kg. orally, 15 min before absolute ethanol (1.0 ml.), male fasted rats, 8/group, lesions scored 1 hour after ethanol, based on ulcer index vs controls
# Method: The antiulcer activity of the compounds of the present invention is evaluated by an ethanol-induced rat ulcer assay, a test reflecting clinical utility of these compounds in the treatment of peptic ulcers, particularly gastric ulcers.
# The effectiveness of the products of this invention as antiulcer agents is determined in an ethanol-induced rat ulcer assay. In this test, overnight fasted male rats are orally administered either drug (5 mg./kg.) dissolved or suspended in water or dilute NaOH, or water (controls), fifteen minutes prior to an orally administered dose of absolute ethanol (1.0 ml.). One hour after the ethanol challenge the animals (8/group) are killed and the stomachs examined for the presence of lesions. After sacrifice the abdomen is opened and a locking hemostate placed at the pylorus. Six ml. of a 4% solution of formaldehyde is injected into the stomach with a gastric feeding tube and a second locking hemostate is used to seal the esophagus. The stomach is removed, opened along the greater curvature and examined for ulceration.
# The scoring system used to quantitate the ethanol-induced lesions is given below.
# 1 Normal appearing stomach
# 2 Pinpoint sized lesions
# 3 Lesions, 2 or fewer; pin-
# 5 Lesions with hemorrhage
# For each group of animals an ulcer index is calculated as follows:
# Ulceration Index=(the sum of the scores of the group)×(the sum of the number of ulcers in the group)×(the fraction of the group having any incidence of ulceration).
# The percent inhibition of ulcers is calculated as follows:
# % Inhibition=100×[(ulcer index controls)-(ulcer index drug-treated)].div.(ulcer index controls).
# gastric ulcers = conditions: animals, including humans; cited from earlier work
# antiallergic activity = conditions: cited from earlier work
Compound,inhibition at 5 mg/kg [1] [%],% Inhibition (oral activity in the ethanol-induced rat ulcer assay) [1],further results
"CCOC(=O)C(=O)Nc1nc(CC)c(CC)s1 [Example 18, ethyl 4,5-diethylthiazol-2-ylcarbamoylcarboxylate]",81,,
"CCOC(=O)C(=O)Nc1nc2c(s1)CCCC2 [Example 23, ethyl 4,5,6,7-tetrahydrobenzthiazol-2-ylcarbamoylcarboxylate]",51,,
ethyl 5-methylthiazol-2-ylcarbamoylcarboxylate [Example 15],,48%,
"CCOC(=O)C(=O)Nc1nc(C)c(C)s1 [Example 16, ethyl 4,5-dimethylthiazol-2-ylcarbamoylcarboxylate]",62,,
"CC1(C)[C@@H](OC(=O)CCC(=O)O)CC[C@]2(C)[C@H]3C(=O)C=C4[C@@H]5C[C@@](C)(C(=O)O)CC[C@]5(C)CC[C@@]4(C)[C@]3(C)CC[C@@H]12 [carbenoxolone sodium, disodium salt of the hemisuccinate of glycyrrhetinic acid]",,,effect on gastric ulcers (gastric ulcers): prevent formation of and to accelerate healing of gastric ulcers
ethyl 4-methylthiazol-2-ylcarbamoylcarboxylate [Example 14],,59%,
CCOC(=O)C(=O)Nc1nccs1 [ethyl thiazol-2-ylcarbamoylcarboxylate],3,inactive,"antiallergic activity, parenteral (antiallergic activity; high parenteral dose): antiallergic activity; antiallergic activity, oral (antiallergic activity; oral, even at 200 mg./kg.): no significant oral activity; antiulcer activity (in words) ([1]; compared with compounds of the invention): lacking in the antiulcer activity"
